This passage reports IC50 and EC50 results from ChEMBL document CHEMBL1201862, “PubChem BioAssay data set” (2004).

SMILES strings stand for the structures. Active and inactive are the calls of the source.

Broadly, the IC50 is the concentration that inhibits the measured activity by half. Broadly, the EC50 is the concentration needed to bring the measured effect to its halfway point.

Experiment [1] concerns the target Protein-tyrosine kinase 2-beta (Homo sapiens, UniProt Q14289).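 Note: potency of inhibitors of PYK2 kinase phosphorylation of poly-GT substrate.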
Experiment [2] in a line: growth suppression of beta-catenin-knockout colon cells, dose response, cell-based, HCT116, human colon tumor (AID 1045).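 Note: HCT116 colon tumor cells with beta catenin knocked out; cells exposed to compound for 60 hours.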 The class given is functional.
Experiment [3] in a line: growth suppression of PTEN-null colon cells, dose response, cell-based, HCT116 PTEN knockout (AID 1047).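 Note: HCT116 colon tumor cells with PTEN knocked out; cells exposed to compound for 60 hours before readout; potency for loss of cell viability measured by luminescence.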 The class given is functional.
For experiment [4], the target named is Epstein-Barr nuclear antigen 1 (Epstein-Barr virus (strain B95-8) (HHV-4) (Human herpesvirus 4), UniProt P03211). The experiment in a line: EBNA-1 inhibitors, dose response, biochemical, fluorescence polarization, 1536-well (AID 2381).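 Note: fluorescence polarization of a Cy5 DNA probe bound by EBNA-1 protein.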 Further details: species or system human gammaherpesvirus 4.
The nature of experiment [5]: inhibitors of intracellular T. cruzi replication, confirmation, NIH3T3 host cells, beta-gal luminescence (AID 2044).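 Note: intracellular parasites grown in NIH/3T3 mouse fibroblasts as host cells; luminescent beta-galactosidase reporter signal from transgenic T. cruzi replicating inside host cells; inhibitors lower the luminescence signal.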 The experiment is classed as functional, cell-based.
Experiment [6] can be described thus: cytotoxicity toward NIH3T3 fibroblasts, dose response, counter-screen, cell-based, ATP luminescence, mouse fibroblasts (AID 2010).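 Note: cells exposed to compound for about 90 hours before reading.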 The experiment is classed as functional. (In general: Counterscreens check selectivity or assay interference.)
Experiment [7] concerns the target Lytic switch protein BZLF1 (Epstein-Barr virus (strain B95-8) (HHV-4) (Human herpesvirus 4), UniProt P03206). The experiment in a line: EBV ZTA inhibitors, dose response, counter-screen for EBNA-1 inhibitor project, biochemical, fluorescence polarization, Epstein-Barr virus, 1536-well (AID 2377).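 Note: fluorescence polarization of Cy5-labelled ZRE DNA probe bound by purified Zta.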 Further details: species or system human gammaherpesvirus 4.
Experiment [8] can be described thus: Luminescence Cell-Based Dose Response to Identify Activators of 5'UTR Stem-Loop Driven Prion Protein mRNA Translation in H4-C Neuroglioblastoma Cells. [Related pubchem assays: 1829 (Project Summary), 1814 (Primary HTS)]. The class given is functional.
Experiment [9] can be described thus: Luminescence Cell-Based Dose Response to Identify Activators of Luciferase Translation or Activity in H4-C Neuroglioblastoma Cells. [Related pubchem assays: 1829 (Project Summary), 1814 (Primary HTS)]. The experiment is classed as functional.
Experiment [10] can be described thus: Luminescence Cell-Based Dose Response HTS to Identify Activators of Luciferase Translation or Activity in H4 […] Cells. [Related pubchem assays: 1829 (Project Summary), 1814 (Primary HTS)]. The experiment is classed as functional.
The nature of experiment [11]: Luminescence Cell-Based Dose Confirmation to Identify Activators of 5'UTR Stem-Loop Driven Alpha-Synuclein mRNA Translation in H4 Neuroglioblastoma Cells. [Related pubchem assays: 1829 (Project Summary), 1814 (Primary HTS)]. The class given is functional.
Experiment [12] deals with Photoreceptor-specific nuclear receptor (Homo sapiens, UniProt Q9Y5X4). As to the kind of experiment: NR2E3 inverse agonists, dose response, biochemical, TR-FRET (AID 463256). The class given is functional. Background: TR-FRET usually uses a lanthanide donor and a delayed reading to cut background.
Experiment [13] deals with Peroxisome proliferator-activated receptor gamma/Nuclear receptor corepressor 2 (Homo sapiens, UniProt P37231+Q9Y618). As to the kind of experiment: Counterscreen for NR2E3 inverse agonists: TR-FRET-based biochemical high throughput dose response assay to identify inverse agonists of the interaction between peroxisome proliferator-activated receptor gamma (PPARg) and nuclear receptor co-repressor 2 (NCOR2). The experiment is classed as functional.

Another experiment deals with H4. The experiment in a line: Luminescence Cell-Based Dose Response HTS to Identify Activators of 5'UTR Stem-Loop Driven Prion Protein mRNA Translation in H4 Neuroglioblastoma Cells. [Related pubchem assays: 1829 (Project Summary), 1814 (Primary HTS)]. Conditions: Homo sapiens. The class given is functional.
A short description of experiment [14]: Luminescence Cell-Based Dose Confirmation HTS to Identify Activators of 5'UTR Stem-Loop Driven Alpha-Synuclein mRNA Translation in H4 Neuroglioblastoma Cells. [Related pubchem assays: 1829 (Project Summary), 1814 (Primary HTS)]. The class given is functional.
Another experiment concerns the target NADPH oxidase 1 (Homo sapiens, UniProt Q9Y5S8). The class given is functional, cell-based.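 Note: Cell-based assay with luminescence read-out, IC50 derived from inhibitor dose-response curves; intracellular ROS from endogenous NOX1 in intact HT29 colon cancer cells; potency of inhibitors that lower the ROS luminescence signal.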
The target of experiment [15] is Heat shock protein HSP 90-alpha (Homo sapiens, UniProt P07900). As to the kind of experiment: Luminescence-based dose response biochemical high throughput screening assay for inhibitors of the Heat Shock Protein 90 (HSP90). [Related pubchem assays: 1831 (Summary AID.), 1846 (Confirmation screen.), 1789 (Primary screen.)].

Sequence of Lytic switch protein BZLF1 (P03206 whole entry): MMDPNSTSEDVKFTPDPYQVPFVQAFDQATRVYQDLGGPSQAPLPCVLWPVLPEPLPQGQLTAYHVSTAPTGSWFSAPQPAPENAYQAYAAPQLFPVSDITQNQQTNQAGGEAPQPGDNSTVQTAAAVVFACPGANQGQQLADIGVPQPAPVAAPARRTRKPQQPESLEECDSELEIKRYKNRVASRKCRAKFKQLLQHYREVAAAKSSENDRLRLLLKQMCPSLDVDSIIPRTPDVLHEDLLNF
Sequence of Photoreceptor-specific nuclear receptor (Q9Y5X4 whole entry): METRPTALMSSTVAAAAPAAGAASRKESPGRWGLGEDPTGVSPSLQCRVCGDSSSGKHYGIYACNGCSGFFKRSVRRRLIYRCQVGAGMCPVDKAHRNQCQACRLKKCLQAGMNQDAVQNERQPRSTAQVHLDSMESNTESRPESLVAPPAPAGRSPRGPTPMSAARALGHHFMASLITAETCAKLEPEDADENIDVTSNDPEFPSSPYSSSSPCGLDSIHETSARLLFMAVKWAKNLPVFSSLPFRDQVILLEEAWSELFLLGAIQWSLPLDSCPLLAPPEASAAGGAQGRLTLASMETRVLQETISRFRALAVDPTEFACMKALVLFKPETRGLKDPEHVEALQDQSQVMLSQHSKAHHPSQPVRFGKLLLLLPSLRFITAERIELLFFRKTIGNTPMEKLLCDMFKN
Sequence of NADPH oxidase 1 (Q9Y5S8 whole entry): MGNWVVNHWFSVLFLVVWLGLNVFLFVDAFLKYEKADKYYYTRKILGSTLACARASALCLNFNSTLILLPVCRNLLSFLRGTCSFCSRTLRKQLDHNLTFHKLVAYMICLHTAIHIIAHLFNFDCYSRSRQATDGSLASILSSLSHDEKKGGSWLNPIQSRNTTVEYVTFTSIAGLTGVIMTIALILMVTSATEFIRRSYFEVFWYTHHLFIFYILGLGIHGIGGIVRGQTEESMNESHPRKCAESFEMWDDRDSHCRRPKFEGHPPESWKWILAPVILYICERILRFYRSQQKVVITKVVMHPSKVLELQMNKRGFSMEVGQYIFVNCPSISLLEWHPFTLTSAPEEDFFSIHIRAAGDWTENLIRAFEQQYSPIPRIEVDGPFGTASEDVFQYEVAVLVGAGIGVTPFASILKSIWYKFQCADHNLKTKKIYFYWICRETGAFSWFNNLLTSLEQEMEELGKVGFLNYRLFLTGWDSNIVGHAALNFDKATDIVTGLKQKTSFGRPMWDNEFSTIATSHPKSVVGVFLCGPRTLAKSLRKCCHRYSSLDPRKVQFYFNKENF
Sequence of Epstein-Barr nuclear antigen 1 (P03211 whole entry): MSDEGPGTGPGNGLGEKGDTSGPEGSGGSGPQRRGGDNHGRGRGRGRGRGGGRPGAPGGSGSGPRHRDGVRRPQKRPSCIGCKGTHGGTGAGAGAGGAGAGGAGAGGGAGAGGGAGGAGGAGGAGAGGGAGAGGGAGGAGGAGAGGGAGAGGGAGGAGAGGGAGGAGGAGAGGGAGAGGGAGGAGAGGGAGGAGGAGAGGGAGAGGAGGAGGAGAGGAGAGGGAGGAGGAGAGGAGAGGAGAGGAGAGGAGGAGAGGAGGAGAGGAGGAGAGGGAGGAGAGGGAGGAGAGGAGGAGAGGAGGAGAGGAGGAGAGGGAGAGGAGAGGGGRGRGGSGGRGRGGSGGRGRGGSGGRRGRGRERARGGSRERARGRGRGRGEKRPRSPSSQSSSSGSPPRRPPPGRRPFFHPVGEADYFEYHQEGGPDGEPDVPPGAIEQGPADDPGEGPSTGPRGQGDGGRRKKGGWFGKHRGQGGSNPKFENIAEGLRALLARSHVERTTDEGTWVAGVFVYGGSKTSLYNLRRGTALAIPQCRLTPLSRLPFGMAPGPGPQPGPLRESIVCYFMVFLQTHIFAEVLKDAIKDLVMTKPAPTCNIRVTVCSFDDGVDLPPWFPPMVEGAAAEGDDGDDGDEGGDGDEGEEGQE
Sequence of Peroxisome proliferator-activated receptor gamma/Nuclear receptor corepressor 2 (P37231 whole entry): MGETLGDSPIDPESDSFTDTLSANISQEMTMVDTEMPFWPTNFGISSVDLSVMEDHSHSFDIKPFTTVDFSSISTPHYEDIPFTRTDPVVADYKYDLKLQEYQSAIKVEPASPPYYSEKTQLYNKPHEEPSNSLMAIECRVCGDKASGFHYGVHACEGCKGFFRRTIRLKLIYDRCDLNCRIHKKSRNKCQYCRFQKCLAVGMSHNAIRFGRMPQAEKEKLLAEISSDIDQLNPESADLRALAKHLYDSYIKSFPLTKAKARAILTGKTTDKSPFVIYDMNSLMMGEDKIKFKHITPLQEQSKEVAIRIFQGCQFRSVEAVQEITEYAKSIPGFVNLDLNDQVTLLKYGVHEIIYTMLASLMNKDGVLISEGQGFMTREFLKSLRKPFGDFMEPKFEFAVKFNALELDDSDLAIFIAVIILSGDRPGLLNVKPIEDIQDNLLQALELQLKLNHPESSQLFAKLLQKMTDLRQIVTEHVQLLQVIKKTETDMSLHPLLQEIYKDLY
Sequence of Peroxisome proliferator-activated receptor gamma/Nuclear receptor corepressor 2 (Q9Y618 whole entry): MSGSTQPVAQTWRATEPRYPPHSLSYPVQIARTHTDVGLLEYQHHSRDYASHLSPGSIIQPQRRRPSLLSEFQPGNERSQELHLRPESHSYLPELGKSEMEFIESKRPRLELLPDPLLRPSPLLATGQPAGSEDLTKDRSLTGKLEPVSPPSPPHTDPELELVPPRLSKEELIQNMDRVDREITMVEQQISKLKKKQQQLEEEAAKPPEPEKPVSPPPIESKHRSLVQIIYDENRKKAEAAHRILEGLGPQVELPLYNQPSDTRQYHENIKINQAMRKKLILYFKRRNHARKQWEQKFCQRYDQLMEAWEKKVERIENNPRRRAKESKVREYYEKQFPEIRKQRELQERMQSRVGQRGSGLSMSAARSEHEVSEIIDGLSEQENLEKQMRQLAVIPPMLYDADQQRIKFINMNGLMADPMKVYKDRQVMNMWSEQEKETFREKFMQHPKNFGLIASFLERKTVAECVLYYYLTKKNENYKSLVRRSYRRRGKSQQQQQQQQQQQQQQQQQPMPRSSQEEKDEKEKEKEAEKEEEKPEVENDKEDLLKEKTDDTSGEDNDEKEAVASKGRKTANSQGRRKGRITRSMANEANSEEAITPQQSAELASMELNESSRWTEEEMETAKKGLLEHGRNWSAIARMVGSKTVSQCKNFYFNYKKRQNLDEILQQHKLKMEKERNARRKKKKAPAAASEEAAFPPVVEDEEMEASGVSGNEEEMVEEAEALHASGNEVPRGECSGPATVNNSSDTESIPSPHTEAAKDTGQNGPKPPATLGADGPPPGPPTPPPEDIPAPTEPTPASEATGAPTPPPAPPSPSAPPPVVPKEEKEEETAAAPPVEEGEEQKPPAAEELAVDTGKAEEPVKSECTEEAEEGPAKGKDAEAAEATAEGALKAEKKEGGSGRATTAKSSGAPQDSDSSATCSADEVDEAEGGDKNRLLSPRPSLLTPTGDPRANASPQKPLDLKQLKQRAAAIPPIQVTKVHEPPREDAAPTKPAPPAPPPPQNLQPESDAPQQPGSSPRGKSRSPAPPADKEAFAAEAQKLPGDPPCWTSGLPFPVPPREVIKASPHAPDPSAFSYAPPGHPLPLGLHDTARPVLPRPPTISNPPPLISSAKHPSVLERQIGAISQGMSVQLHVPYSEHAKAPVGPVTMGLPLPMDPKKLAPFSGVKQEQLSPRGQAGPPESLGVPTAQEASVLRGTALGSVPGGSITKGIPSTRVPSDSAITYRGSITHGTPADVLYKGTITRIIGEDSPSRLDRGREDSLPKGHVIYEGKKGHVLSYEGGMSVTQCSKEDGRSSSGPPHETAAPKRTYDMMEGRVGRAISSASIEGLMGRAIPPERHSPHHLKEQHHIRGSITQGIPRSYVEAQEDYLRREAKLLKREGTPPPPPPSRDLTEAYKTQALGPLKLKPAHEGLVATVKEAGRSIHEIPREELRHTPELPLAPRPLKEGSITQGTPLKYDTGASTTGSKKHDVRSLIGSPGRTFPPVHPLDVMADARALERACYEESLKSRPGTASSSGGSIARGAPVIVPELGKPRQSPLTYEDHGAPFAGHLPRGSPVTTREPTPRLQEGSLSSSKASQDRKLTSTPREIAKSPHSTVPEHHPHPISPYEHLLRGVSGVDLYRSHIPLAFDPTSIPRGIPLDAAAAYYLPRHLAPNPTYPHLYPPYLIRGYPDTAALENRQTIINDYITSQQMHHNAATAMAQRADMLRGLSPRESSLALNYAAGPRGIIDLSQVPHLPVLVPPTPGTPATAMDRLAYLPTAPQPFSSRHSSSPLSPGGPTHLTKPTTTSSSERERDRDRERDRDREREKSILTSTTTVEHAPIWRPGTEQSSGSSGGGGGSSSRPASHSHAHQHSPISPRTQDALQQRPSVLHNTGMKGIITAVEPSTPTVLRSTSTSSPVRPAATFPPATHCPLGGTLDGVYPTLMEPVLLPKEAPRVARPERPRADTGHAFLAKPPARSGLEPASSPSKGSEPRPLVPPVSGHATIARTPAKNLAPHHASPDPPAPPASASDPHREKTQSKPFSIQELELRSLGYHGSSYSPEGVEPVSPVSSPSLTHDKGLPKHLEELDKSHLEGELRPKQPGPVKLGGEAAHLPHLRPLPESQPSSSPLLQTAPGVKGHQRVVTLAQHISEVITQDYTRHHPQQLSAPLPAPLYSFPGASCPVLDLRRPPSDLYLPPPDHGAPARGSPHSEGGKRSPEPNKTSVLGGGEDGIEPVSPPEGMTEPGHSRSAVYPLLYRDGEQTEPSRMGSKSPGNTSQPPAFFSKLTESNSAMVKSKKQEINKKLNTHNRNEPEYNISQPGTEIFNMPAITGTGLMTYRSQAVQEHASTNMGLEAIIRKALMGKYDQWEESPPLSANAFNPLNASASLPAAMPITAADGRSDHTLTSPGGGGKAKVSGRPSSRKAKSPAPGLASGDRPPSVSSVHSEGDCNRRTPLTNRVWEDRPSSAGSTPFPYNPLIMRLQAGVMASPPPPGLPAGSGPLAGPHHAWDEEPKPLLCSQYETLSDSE

In the case of `CN1CCc2c(sc3ncn4nc(-c5ccccc5O)nc4c23)C1`, the IC50 in experiment [1] is on record as 17.9 µM (not active). Moreover, the EC50 in [2] is 10.4 µM (active); in experiment [3] it was 13.4 µM (active).
Take `CC(=O)Nc1ccc(NC(=O)Cc2sc(-c3cccnc3)nc2-c2ccc(C)cc2)cc1`: the IC50 in experiment [4] is > 5.47 µM (active); in [7], > 111 µM (not active). The results for the EC50 in experiment [5] and in experiment [6] were 1.28 µM (active) and > 60 µM (not active), respectively.
In the case of `Cc1ccc(C(=O)Nc2ccc(C(F)(F)F)n(C)c2=O)cc1`, the EC50 in experiment [8] was 317 nM (active); in [9] it was 305 nM (active); in experiment [10] it was < 100 nM (inconclusive); in [11], 311 nM (active).
With `CCOC(=O)N1CCc2c(sc(NC(=O)C3COc4ccccc4O3)c2C(N)=O)C1` (stereo unspecified), the IC50 in experiment [4] is 15.3 µM (not active); in experiment [7], > 111 µM (not active).
Consider `O=C(Nc1cccc(-c2nc3cccnc3s2)c1)c1ccc(Cl)nc1`, for which the IC50 is 3.37 µM (active) in experiment [12] and 1.8 µM (active) in experiment [13].
In the case of `O=C1c2ccccc2S(=O)(=O)N1CC1CC(c2ccc(Cl)cc2)=NO1` (stereo unspecified), the EC50 in [8] was 805 nM (active); in experiment [9] it was 407 nM (active); in the experiment on H4, 9.96 µM (active); in [10] it was < 100 nM (active); in experiment [11] it was 435 nM (active); in experiment [14] it was < 100 nM (active).
Turning to `COc1cccc(OC(=O)c2sc3ccccc3c2Cl)c1`, on NADPH oxidase 1, the IC50 is recorded as > 17 µM (not active).
Same read-out and setting: the result for `COc1ccc(-c2nc(-c3ccc(O)cc3)[nH]c2-c2ccc(OC)cc2)cc1` reads 9.01 µM (active).
`Cc1ccc2c(Cl)c(C(=O)Nc3cc(C)on3)sc2c1`: the IC50 in [12] was 12.7 µM (not active); in experiment [13], 14.1 µM (not active).
With `C=CCOC(=O)c1sc(NC(=O)c2ccc(OC)cc2)nc1C`, the IC50 in [15] was 3.58 µM (active).
